US20250230193A1, “CYCLIC COMPOUND HAVING SELECTIVE KRAS INHIBITORY EFFECT ON HRAS AND NRAS” (CHUGAI SEIYAKU KABUSHIKI KAISHA, priority 2022, published 2025)

What was measured:
[1] = biological target: GDP-bound HRAS wild-type protein (Homo sapiens, UniProt P01112); assay: Binding to HRAS by surface plasmon resonance (SPR), Single Cycle Kinetics; conditions: KD ratio, GDP-bound HRAS wild-type vs GDP-bound KRAS wild-type, SPR
[2] = biological target: GDP-bound NRAS wild-type protein (Homo sapiens, UniProt P01111); assay: Binding to NRAS by surface plasmon resonance (SPR), Single Cycle Kinetics; conditions: KD ratio, GDP-bound NRAS wild-type vs GDP-bound KRAS wild-type, SPR
Sequence of GDP-bound NRAS wild-type protein (P01111 whole entry): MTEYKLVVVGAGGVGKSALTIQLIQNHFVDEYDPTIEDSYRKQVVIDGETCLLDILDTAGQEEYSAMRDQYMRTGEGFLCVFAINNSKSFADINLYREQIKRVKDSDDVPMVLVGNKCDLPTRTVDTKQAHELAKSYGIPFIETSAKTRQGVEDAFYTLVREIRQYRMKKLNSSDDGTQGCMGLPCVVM

Sequence of GDP-bound HRAS wild-type protein (P01112 whole entry): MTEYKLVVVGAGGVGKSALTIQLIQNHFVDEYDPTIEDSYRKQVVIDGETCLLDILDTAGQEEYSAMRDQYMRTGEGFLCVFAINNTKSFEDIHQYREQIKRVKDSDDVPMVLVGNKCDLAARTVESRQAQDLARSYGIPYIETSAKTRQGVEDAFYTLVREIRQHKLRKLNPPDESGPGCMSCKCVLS

SMILES | HRAS/KRAS (ratio of KD value with respect to HRAS to KD value with respect to KRAS) [1] | NRAS/KRAS (ratio of KD value with respect to NRAS to KD value with respect to KRAS) [2]
CCO[C@@H]1C[C@H]2C(=O)NC3(CCC3)C(=O)N(C)[C@@H](C3CCCC3)C(=O)N(C)[C@H](C(=O)N3CCOCC3)CC(=O)N(C)[C@@H](CC3CC3)C(=O)N[C@@H]([C@@H](C)CC)C(=O)N(C)CC(=O)N(C)[C@H]3CCCCCN(C3=O)[C@@H](Cc3ccc(F)cc3)C(=O)N(C)CC(=O)N[C@@H](CCc3cc(F)c(C(F)(F)F)c(F)c3)C(=O)N2C1 [PP1178] | B (a compound having 3 or more and less than 10 is denoted as B) | B (a compound having 3 or more and less than 10 is denoted as B)
CCO[C@@H]1C[C@H]2C(=O)NC3(CCC3)C(=O)N(C)[C@@H](C3CCCC3)C(=O)N(C)[C@H](C(=O)N3CCOCC3)CC(=O)N(C)[C@@H](COC)C(=O)N[C@@H]([C@@H](C)CC)C(=O)N(C)CC(=O)N(C)[C@H]3CCCCCN(C3=O)[C@@H](Cc3ccc(F)cc3)C(=O)N(C)CC(=O)N[C@@H](CCc3cc(F)c(C(F)(F)F)c(F)c3)C(=O)N2C1 [PP1179] | B (a compound having 3 or more and less than 10 is denoted as B) | B (a compound having 3 or more and less than 10 is denoted as B)
CCO[C@@H]1C[C@H]2C(=O)NC3(CCC3)C(=O)N(C)[C@@H](C3CCCC3)C(=O)N(C)[C@H](C(=O)N3CCOCC3)CC(=O)N(C)[C@@H](CCOC)C(=O)N[C@@H]([C@@H](C)CC)C(=O)N(C)CC(=O)N(C)[C@H]3CCCCCN(C3=O)[C@@H](Cc3ccc(F)cc3)C(=O)N(C)CC(=O)N[C@@H](CCc3cc(F)c(C(F)(F)F)c(F)c3)C(=O)N2C1 [PP1180] | B (a compound having 3 or more and less than 10 is denoted as B) | B (a compound having 3 or more and less than 10 is denoted as B)
CCO[C@@H]1C[C@H]2C(=O)NC3(CCC3)C(=O)N(C)[C@@H](C3CCCC3)C(=O)N(C)[C@H](C(=O)N3CCOCC3)CC(=O)N(C)[C@@H](Cc3cccs3)C(=O)N[C@@H]([C@@H](C)CC)C(=O)N(C)CC(=O)N(C)[C@H]3CCCCCN(C3=O)[C@@H](Cc3ccc(F)cc3)C(=O)N(C)CC(=O)N[C@@H](CCc3cc(F)c(C(F)(F)F)c(F)c3)C(=O)N2C1 [PP1183] | B (a compound having 3 or more and less than 10 is denoted as B) | B (a compound having 3 or more and less than 10 is denoted as B)
CCO[C@@H]1C[C@H]2C(=O)NC3(CCC3)C(=O)N(C)[C@@H](C3CCCC3)C(=O)N(C)[C@H](C(=O)N3CCOCC3)CC(=O)N(C)[C@@H](Cc3ccsc3)C(=O)N[C@@H]([C@@H](C)CC)C(=O)N(C)CC(=O)N(C)[C@H]3CCCCCN(C3=O)[C@@H](Cc3ccc(F)cc3)C(=O)N(C)CC(=O)N[C@@H](CCc3cc(F)c(C(F)(F)F)c(F)c3)C(=O)N2C1 [PP1184] | B (a compound having 3 or more and less than 10 is denoted as B) | B (a compound having 3 or more and less than 10 is denoted as B)
CCO[C@@H]1C[C@H]2C(=O)NC3(CCC3)C(=O)N(C)[C@@H](C3CCCC3)C(=O)N(C)[C@H](C(=O)N3CCOCC3)CC(=O)N(C)[C@@H](Cc3ccccc3C#N)C(=O)N[C@@H]([C@@H](C)CC)C(=O)N(C)CC(=O)N(C)[C@H]3CCCCCN(C3=O)[C@@H](Cc3ccc(F)cc3)C(=O)N(C)CC(=O)N[C@@H](CCc3cc(F)c(C(F)(F)F)c(F)c3)C(=O)N2C1 [PP1185] | B (a compound having 3 or more and less than 10 is denoted as B) | B (a compound having 3 or more and less than 10 is denoted as B)
CCO[C@@H]1C[C@H]2C(=O)NC3(CCC3)C(=O)N(C)[C@@H](C3CCCC3)C(=O)N(C)[C@H](C(=O)N3CCOCC3)CC(=O)N(C)[C@@H](Cc3cccc(C#N)c3)C(=O)N[C@@H]([C@@H](C)CC)C(=O)N(C)CC(=O)N(C)[C@H]3CCCCCN(C3=O)[C@@H](Cc3ccc(F)cc3)C(=O)N(C)CC(=O)N[C@@H](CCc3cc(F)c(C(F)(F)F)c(F)c3)C(=O)N2C1 [PP1186] | B (a compound having 3 or more and less than 10 is denoted as B) | B (a compound having 3 or more and less than 10 is denoted as B)
CCO[C@@H]1C[C@H]2C(=O)NC3(CCC3)C(=O)N(C)[C@@H](C3CCCC3)C(=O)N(C)[C@H](C(=O)N3CCOCC3)CC(=O)N(C)[C@@H](Cc3ccc(C#N)cc3)C(=O)N[C@@H]([C@@H](C)CC)C(=O)N(C)CC(=O)N(C)[C@H]3CCCCCN(C3=O)[C@@H](Cc3ccc(F)cc3)C(=O)N(C)CC(=O)N[C@@H](CCc3cc(F)c(C(F)(F)F)c(F)c3)C(=O)N2C1 [PP1187] | B (a compound having 3 or more and less than 10 is denoted as B) | B (a compound having 3 or more and less than 10 is denoted as B)
CCO[C@@H]1C[C@H]2C(=O)NC3(CCC3)C(=O)N(C)[C@@H](C3CCCC3)C(=O)N(C)[C@H](C(=O)N3CCOCC3)CC(=O)N(C)[C@@H](Cc3ccc(Cl)c(Cl)c3)C(=O)N[C@@H]([C@@H](C)CC)C(=O)N(C)CC(=O)N(C)[C@H]3CCCCCN(C3=O)[C@@H](Cc3ccc(F)cc3)C(=O)N(C)CC(=O)N[C@@H](CCc3cc(F)c(C(F)(F)F)c(F)c3)C(=O)N2C1 [PP1188] | B (a compound having 3 or more and less than 10 is denoted as B) | B (a compound having 3 or more and less than 10 is denoted as B)
CCO[C@@H]1C[C@H]2C(=O)NC3(CCC3)C(=O)N(C)[C@@H](C3CCCC3)C(=O)N(C)[C@H](C(=O)N(C)C)CC(=O)N(C)[C@@H](C)C(=O)N[C@@H]([C@@H](C)CC)C(=O)N(C)CC(=O)N(C)[C@H]3CCCCCN(C3=O)[C@@H](Cc3ccc(F)cc3)C(=O)N(C)CC(=O)N[C@@H](CCc3cc(F)c(C(F)(F)F)c(F)c3)C(=O)N2C1 [PP1189] | B (a compound having 3 or more and less than 10 is denoted as B) | B (a compound having 3 or more and less than 10 is denoted as B)
CCO[C@@H]1C[C@H]2C(=O)NC3(CCC3)C(=O)N(C)[C@@H](C3CCCC3)C(=O)N(C)[C@H](C(=O)N(C)C)CC(=O)N(C)[C@@H](CC)C(=O)N[C@@H]([C@@H](C)CC)C(=O)N(C)CC(=O)N(C)[C@H]3CCCCCN(C3=O)[C@@H](Cc3ccc(F)cc3)C(=O)N(C)CC(=O)N[C@@H](CCc3cc(F)c(C(F)(F)F)c(F)c3)C(=O)N2C1 [PP1190] | B (a compound having 3 or more and less than 10 is denoted as B) | B (a compound having 3 or more and less than 10 is denoted as B)
CCO[C@@H]1C[C@H]2C(=O)NC3(CCC3)C(=O)N(C)[C@@H](C3CCCC3)C(=O)N(C)[C@H](C(=O)N(C)C)CC(=O)N(C)[C@@H](CC(F)F)C(=O)N[C@@H]([C@@H](C)CC)C(=O)N(C)CC(=O)N(C)[C@H]3CCCCCN(C3=O)[C@@H](Cc3ccc(F)cc3)C(=O)N(C)CC(=O)N[C@@H](CCc3cc(F)c(C(F)(F)F)c(F)c3)C(=O)N2C1 [PP1191] | B (a compound having 3 or more and less than 10 is denoted as B) | A (a compound having 10 or more and less than 20 is denoted as A)
CCO[C@@H]1C[C@H]2C(=O)NC3(CCC3)C(=O)N(C)[C@@H](C3CCCC3)C(=O)N(C)[C@H](C(=O)N(C)C)CC(=O)N(C)[C@@H](CC3CC3)C(=O)N[C@@H]([C@@H](C)CC)C(=O)N(C)CC(=O)N(C)[C@H]3CCCCCN(C3=O)[C@@H](Cc3ccc(F)cc3)C(=O)N(C)CC(=O)N[C@@H](CCc3cc(F)c(C(F)(F)F)c(F)c3)C(=O)N2C1 [PP1192] | A (a compound having 10 or more and less than 20 is denoted as A) | B (a compound having 3 or more and less than 10 is denoted as B)
CCO[C@@H]1C[C@H]2C(=O)NC3(CCC3)C(=O)N(C)[C@@H](C3CCCC3)C(=O)N(C)[C@H](C(=O)N(C)C)CC(=O)N(C)[C@@H](COC)C(=O)N[C@@H]([C@@H](C)CC)C(=O)N(C)CC(=O)N(C)[C@H]3CCCCCN(C3=O)[C@@H](Cc3ccc(F)cc3)C(=O)N(C)CC(=O)N[C@@H](CCc3cc(F)c(C(F)(F)F)c(F)c3)C(=O)N2C1 [PP1193] | B (a compound having 3 or more and less than 10 is denoted as B) | B (a compound having 3 or more and less than 10 is denoted as B)
CCO[C@@H]1C[C@H]2C(=O)NC3(CCC3)C(=O)N(C)[C@@H](C3CCCC3)C(=O)N(C)[C@H](C(=O)N(C)C)CC(=O)N(C)[C@@H](CCOC)C(=O)N[C@@H]([C@@H](C)CC)C(=O)N(C)CC(=O)N(C)[C@H]3CCCCCN(C3=O)[C@@H](Cc3ccc(F)cc3)C(=O)N(C)CC(=O)N[C@@H](CCc3cc(F)c(C(F)(F)F)c(F)c3)C(=O)N2C1 [PP1194] | B (a compound having 3 or more and less than 10 is denoted as B) | B (a compound having 3 or more and less than 10 is denoted as B)
CCO[C@@H]1C[C@H]2C(=O)NC3(CCC3)C(=O)N(C)[C@@H](C3CCCC3)C(=O)N(C)[C@H](C(=O)N(C)C)CC(=O)N(C)[C@@H](Cc3ccccc3)C(=O)N[C@@H]([C@@H](C)CC)C(=O)N(C)CC(=O)N(C)[C@H]3CCCCCN(C3=O)[C@@H](Cc3ccc(F)cc3)C(=O)N(C)CC(=O)N[C@@H](CCc3cc(F)c(C(F)(F)F)c(F)c3)C(=O)N2C1 [PP1195] | B (a compound having 3 or more and less than 10 is denoted as B) | B (a compound having 3 or more and less than 10 is denoted as B)
